Measurements reported in ChEMBL document CHEMBL3507680, “University of Dundee, Gates Library screen for HepG2 cell viability”.

Assay: Human HepG2 cell viability assay in 384 well format
Type: toxicity, cell-based
Parameters: dose 125 nL, time 70.5 hour; cytotoxicity at 70.5 h: concentration not given beside the values
Details: HepG2 cells, read-out: Inhibition

Row | SMILES | cytotoxicity at 70.5 h [%]
1 | CN(c1ccc(C(N)=O)nn1)C1CCC1 | -15.8
2 | O=C(NCCc1nnc2n1CCCCC2)N1CCC2(CCOC2)C1 (centres undefined) | -5.08
3 | CS(=O)(=O)Cc1nc(CN2CCCc3sccc3C2)cs1 | -5.84
4 | CCN(C)c1ccc(CNS(=O)(=O)C2CCOCC2)cc1F | -10.6
5 | CNC(=O)c1ccc(N(C)C2CCC2)nn1 | 9.71
6 | CN(Cc1ccc(Cl)c(F)c1)C(=O)CCc1ccncc1 | -6.42
7 | CCCn1nnnc1CN(C)C(C)c1ccc(C)cc1 (centres undefined) | -5.6
8 | CCCn1nnnc1CN(c1ccc(N2CCOCC2)cc1)C(C)C | -8.46
9 | CS(=O)(=O)Cc1nc(CN2CCOc3ccccc3C2)cs1 | -6.97
10 | CN(Cc1ccc(Cl)c(F)c1)C(=O)c1ccncc1F | -6.79
11 | Cc1cc(C)n(CC2CCCN2C(=O)Cc2cn3ccsc3n2)n1 (centres undefined) | -12.4
12 | CCn1nc(C)c(S(=O)(=O)N(C)c2ccc(Cl)cn2)c1C | 12
13 | COC(=O)c1cccc(NCC(=O)NC(N)=O)c1 | 12.1
14 | COc1cc(CNC(C)Cn2ccnc2)cc2c1OCCO2 (centres undefined) | 21.5
15 | O=C(COCc1ccccc1Cl)N1CCN(c2cnccn2)CC1 | -6.52
16 | NC(=O)C1(CNC(=O)CCc2ccc(Cl)s2)CCOCC1 | -7.77
17 | CNC(=O)C1CCCCN1C(=O)C1CCN(S(C)(=O)=O)CC1 (centres undefined) | -11.7
18 | Cc1nc(CN2C[C@@H]3CN(C(=O)c4cnccn4)C[C@@H]3C2=O)cs1 | -10.8
19 | COCC(=O)N1CCC2(CCC2NC(=O)c2ccn(C)c2)CC1 (centres undefined) | -9.35
20 | Cc1ccc(CN2Cc3cnn(C)c3C(COCC3CC3)C2)o1 (centres undefined) | 2.56
21 | Cc1noc([C@@H]2C[C@H]3OCC[C@H]3N(Cc3ccoc3)C2)n1 | -6.19
22 | CN(C)C(=O)COC1COC2(CCN(c3ncccn3)CC2)C1 (centres undefined) | -7.32

Row | SMILES | cytotoxicity at 70.5 h [%]
23 | Cc1nc(CN2C[C@@H]3CN(C(=O)c4ccoc4C)C[C@@H]3C2=O)cs1 | -10
24 | CCOCC1CN(C(=O)Cc2cccs2)Cc2ccnn2C1 (centres undefined) | -9.44
25 | Cc1nc(CN2C(=O)CC[C@@H]3[C@H]2CCN3C(=O)c2ccc[nH]2)cs1 | -7.13
26 | CN(Cc1cccnc1)CC1CN(C(N)=O)Cc2nccn2C1 (centres undefined) | -2.38
27 | CC(=O)N1CC2(CCNCC2)c2cc(C)ccc21 | 20.4
28 | O=C(CC1CC1)NCc1cn2c(n1)CN(C(=O)C1CCOCC1)CC2 | -4.63
29 | COCC(=O)N1Cc2nccn2CC(CN(C)Cc2cccnc2)C1 (centres undefined) | -7.06
30 | COCc1cncc2c1CCN(C(=O)c1ccoc1C)C2 | -2.3
31 | Cc1ccc2c(c1)C1(CCNCC1)CN2C(=O)C(C)C | 18.3
32 | CCCS(=O)(=O)N1C[C@H]2C[C@H](C(=O)N(C)C)[C@@H](C1)O2 | -13.7
33 | COCCNC(=O)[C@@H]1CCO[C@@H]2CCN(c3ccc(C)nn3)C[C@@H]21 | -15.8
34 | Cc1ccc(N2C[C@H]3OCC[C@H]3[C@H](C(=O)NC3CCCC3)C2)nn1 | -12.6
35 | O=C1[C@@H]2CCN(Cc3ccoc3)C[C@@H]2OCCN1c1cccnc1 | -13.5
36 | Cc1ccc(N2C[C@H]3OCC[C@H]3[C@H](C(=O)NCc3ccco3)C2)nn1 | -7.31
37 | COCCNC(=O)[C@@H]1CN(c2ncccn2)C[C@H]2OCC[C@H]21 | -2.54
38 | CCCNC(=O)c1cc(-c2cnc(N3CCCC3)nc2)cn1C | 3.66
39 | CCC(=O)N1CCC2(COCc3cnc(N4CCOCC4)nc32)C1 (centres undefined) | 1.55
40 | COCC(=O)N1CCC2(COCc3cnc(N4CCOCC4)nc32)C1 (centres undefined) | 6.48
41 | O=C(CC1CC1)N1CCC2(CC1)CN(c1ccsc1)C(=O)CO2 | -2.64
42 | CNc1ncc(CN(C)C(=O)c2cccc(CC3CCNCC3)c2)cn1 | 35
43 | COC[C@@H]1CCCN1C(=O)CCc1c(C)nn(C)c1C | -2.05
44 | CNC(=O)c1n[nH]c2c1C(c1cccc3nsnc13)CC(=O)N2 (centres undefined) | -3.59

Row | SMILES | cytotoxicity at 70.5 h [%]
45 | CCc1ncc(C(=O)N(CCOC)Cc2ccccc2F)cn1 | -2.26
46 | Cc1nc(N2CCCC2C(=O)NC(C)(C)CO)nc2ccccc12 (centres undefined) | -7.7
47 | Fc1ccc(CC2CCN(Cc3cscn3)CC2)cc1 | -14.2
48 | O=C1NCCCc2[nH]c(Cc3cccc(Cl)c3)nc21 | 0.226
49 | O=C(CCc1ccccc1F)N1CCCC(OCc2cccnc2)C1 (centres undefined) | -9.56
50 | COC(=O)c1cccc(-c2c[nH]c(C)n2)c1 | -7.21
51 | CSc1ncccc1C(=O)N(C)CCc1scnc1C | -8.88
52 | CC(C)c1nnc(N2C[C@@H]3CC[C@H](C2)N(Cc2ccccc2)C3)s1 | -4.82
53 | COc1cc(N(C)Cc2noc(CC(C)C)n2)ncn1 | 20.1
54 | Cc1cc2cccc(C(=O)N3CCOC(CCN(C)C)C3)c2o1 (centres undefined) | -17.3
55 | CN1CCNC(=O)C1CC(=O)NCCc1cnn(-c2ccccc2)c1 (centres undefined) | 19.9
56 | CC(Cn1ccnc1)NCc1cc(Br)c2c(c1)OCO2 (centres undefined) | 12.5
57 | COc1cc(CNC(C)Cn2ccnc2)cc2c1OCO2 (centres undefined) | -10.9
58 | COc1cc(CNCCn2ccnc2)cc2c1OCO2 | 1.27
59 | c1cnc(NCc2cncc3c2CCN(Cc2ccsc2)C3)nc1 | -7.81
60 | c1cnc(NCc2cncc3c2CCN(Cc2ccoc2)C3)nc1 | -8.36
61 | CC(C)NC(=O)N1Cc2nccn2CC(CN2CCCC2)C1 (centres undefined) | -6.64
62 | CNC(=O)COC1COC2(CCN(c3ccc(C#N)cc3)CC2)C1 (centres undefined) | -5.98
63 | CC(=O)NCC(=O)N1Cc2nccn2CC(CN(C)C(C)C)C1 (centres undefined) | -13.6
64 | c1coc(COCc2ncn3c2CN(Cc2cccs2)CCC3)c1 | -2.67
65 | Cc1nc(CN2C[C@@H]3CN(C(=O)[C@H]4CCCO4)C[C@@H]3C2=O)cs1 | -8.74
66 | CCc1ccc(CN2C[C@@H](c3nc(C)no3)C[C@H]3OCC[C@H]32)o1 | -3.87

Row | SMILES | cytotoxicity at 70.5 h [%]
67 | c1csc(CN2CCCn3cnc(COCC4CC4)c3C2)c1 | 0.853
68 | Cc1nc(CN2CCc3ncnc(-c4ccccc4)c3CC2)cs1 | -9.56
69 | CC(C)OCc1ncn2c1CN(Cc1nccs1)CCC2 | -6.03
70 | O=C1CO[C@@H]2CN(CC3CCOC3)C[C@H]2N1Cc1cccc(F)c1 (some centres undefined) | -6.08
71 | Cc1noc([C@H]2C[C@H]3OCC[C@H]3N(Cc3ccc(F)cc3)C2)n1 | -8.23
72 | Cc1noc([C@@H]2C[C@H]3OCC[C@H]3N(Cc3sccc3C)C2)n1 | 4.03
73 | CC(=O)NCC(=O)N1CCC2(CC1)NC(=O)CC2c1cccnc1 (centres undefined) | -1.28
74 | Cc1nc(CN2C(=O)CC[C@@H]3[C@H]2CCN3C(=O)c2ccccn2)cs1 | -4.48
75 | O=C(CC1CC1)NCc1cn2c(n1)CN(Cc1nccs1)CC2 | -6.29
76 | Cc1ncnc2c1CCN(C(=O)c1ccncc1F)CC2 | -8.13
77 | Cn1cc(C2CC(=O)NC23CCN(C(=O)c2cccnc2)CC3)cn1 (centres undefined) | -3.63
78 | O=C(CC1CC1)NCc1cn2c(n1)CN(Cc1cccc(F)c1)CC2 | -3.4
79 | CCOc1ncnc2c1CCN(C(=O)c1ccncc1F)CC2 | -3.16
80 | Cc1cc(CN2C[C@@H]3COC[C@]3(CNC(=O)N3CCCC3)C2)no1 | 0.0997
81 | O=C1CC(c2ccccc2)C2(CCN(C(=O)c3ccncc3F)CC2)N1 (centres undefined) | -5.44
82 | CCn1cc2c(n1)CN(Cc1ccc(F)cc1)CC2COCC1CC1 (centres undefined) | -1.9
83 | O=C(c1cnccn1)N1C[C@@H]2CCN(c3cccnc3)C[C@@H]2C1 | -9.4
84 | Cn1cccc1C(=O)N1C[C@@H]2CCN(c3cccnc3)C[C@@H]2C1 | -7.6
85 | COCCNC(=O)C1CN(Cc2csc(C)n2)Cc2ccnn2C1 (centres undefined) | -8.82
86 | CCn1cc2c(n1)CN(Cc1cnn(C)c1)CC2COCC1CC1 (centres undefined) | -11.6
87 | CCS(=O)(=O)N1CC[C@H]2C(=O)N(Cc3cccnc3)CCO[C@H]2C1 | -13.9
88 | CN(C)C(=O)[C@H]1C[C@@H]2CN(CCc3ccccc3)C[C@H]1O2 | -6.59

Row | SMILES | cytotoxicity at 70.5 h [%]
89 | O=C1[C@@H]2CCN(Cc3ccoc3)C[C@@H]2OCCN1Cc1cccc(F)c1 | -4.35
90 | CN(C)C(=O)NC1COC2(CCN(Cc3ccc(Cl)c(F)c3)CC2)C1 (centres undefined) | -8.77
91 | CO[C@@H]1CCN(Cc2nccs2)C[C@@H]1Cc1cccc(C)c1 | -3.84
92 | c1ccc(C[C@H]2CN(Cc3nccs3)CC[C@@H]2OCC2CC2)cc1 | -2.59
93 | O=C(c1ccco1)N1C[C@@H]2CCN(c3cccnc3)C[C@@H]2C1 | -11.6
94 | c1cnc(N2CCO[C@H]3CN(Cc4csnn4)C[C@H]32)nc1 | -11.7
95 | Cc1ccc(CN2CCn3c(C(=O)N(C)C)cnc3C2)cc1 | 2.94
96 | COc1ccc(CN2CCn3c(C(=O)N(C)C)cnc3C2)cc1 | -3.13
97 | CCOCCN1Cc2cnn(C)c2C(COCC)C1 (centres undefined) | 8.6
98 | O=C(CC1CC1)NCc1cn2c(n1)CN(Cc1cccnc1)CC2 | -8.95
99 | c1cnn(Cc2cnc3n2CCN(CC2CCCCC2)C3)c1 | -6.48
100 | c1ccc(CN2CCc3ncnc(-c4cccnc4)c3CC2)nc1 | -7.48
101 | c1cnc(N2CCCC3(CCN(CC4CC4)C3)C2)nc1 (centres undefined) | -6.19
102 | CCS(=O)(=O)NC[C@]12COC[C@H]1CN(Cc1ccccn1)C2 | -3.72
103 | Cc1cccc(CN2C(=O)CC[C@@H]3[C@H]2CCN3Cc2ccc(F)cc2)n1 | -4.94
104 | Cc1noc(C)c1CN1Cc2ccnn2CC(C(=O)NCC2CC2)C1 (centres undefined) | -6.51
105 | O=C(O)c1cc2c(nc1-c1ccoc1)CCN(Cc1ccco1)CC2 | -14.2
106 | COCCN1CCc2cc(C(=O)O)c(-c3ccoc3)nc2CC1 | -12.3
107 | CCOCCN1Cc2ncn(C)c2C(COCC2CCOCC2)C1 (centres undefined) | -7.05
108 | CN(C)C(=O)c1cnc2n1CCN(Cc1cccnc1)C2 | 4.75
109 | Cc1ccc(N2CCO[C@H]3CN(Cc4ccccn4)C[C@H]32)nn1 | -9.99
